Laboratory results: patent US20230085307A1, “PYRIDAZINONE COMPOUND AND HERBICIDE” (NISSAN CHEMICAL CORPORATION, priority 2019, published 2023)

tested on: blackgrass; assay: Test Example 5: herbicidal effect by foliage application, plastic box (Table 20, symbol J); format: in vivo, blackgrass (Alopecurus myosuroides); settings: foliage application, AAH 320 g/ha, evaluated three weeks after application
Procedure, shortened: (§1)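 Plants sown in sterilized diluvial soil and grown 14 days in a greenhouse at 25° C to 30° C, then sprayed on the foliage with the compound's emulsion diluted in water to a predetermined herbicide amount. Injury to weeds and crops scored three weeks after application on a visual rating scale.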

Row | SMILES | J: blackgrass, herbicidal effect (criteria 0-5)
1 | Cc1nn(C)c(=O)c(-c2c(-c3ccc(S(C)(=O)=O)cc3)sc3ccc(F)cc23)c1O [2-258] | 5 (Herbicidal rate of 90% or more (almost completely withered))
2 | COCC(=O)Oc1c(C)nn(C)c(=O)c1-c1c(-c2ccc(OC(F)F)cc2)sc2ccc(F)cc12 [2-283] | 4 (Herbicidal rate of 70% or more and less than 90%)

tested on: Japanese bulrush; assay: Test Example 1: herbicidal activity, application before weed generation under submerged conditions (Table 16, symbol B); format: in vivo, Japanese bulrush (Schoenoplectus juncoides); settings: 320 g/ha applied herbicide
Procedure, shortened: (§2)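 Alluvial soil was flooded to 4 cm depth, weed seeds were sown mixed and 2.5-leaf rice seedlings were transplanted. On sowing day, the compound's emulsion, diluted in water to a set dose, was applied to the water surface. Plants grew at 25–30 °C and were scored 0–5 after three weeks.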

Row | SMILES | Herbicidal effect on B: Japanese bulrush (grade 0-5)
3 | Cc1nn(C)c(=O)c(-c2c(-c3ccc(S(C)(=O)=O)cc3)sc3ccc(F)cc23)c1O [2-258] | 3 (Herbicidal rate of 40% or more and less than 70%)
4 | COCC(=O)Oc1c(C)nn(C)c(=O)c1-c1c(-c2ccc(OC(F)F)cc2)sc2ccc(F)cc12 [2-283] | 5 (Herbicidal rate of 90% or more (almost completely withered))

tested on: southern crabgrass; assay: Test Example 5: herbicidal effect by foliage application, plastic box (Table 20, symbol F); format: in vivo, southern crabgrass (Digitaria ciliaris); settings: foliage application, AAH 320 g/ha, evaluated three weeks after application
Procedure, shortened: as §1

Row | SMILES | F: southern crabgrass, herbicidal effect (criteria 0-5)
5 | Cc1nn(C)c(=O)c(-c2c(-c3ccc(S(C)(=O)=O)cc3)sc3ccc(F)cc23)c1O [2-258] | 5 (Herbicidal rate of 90% or more (almost completely withered))
6 | COCC(=O)Oc1c(C)nn(C)c(=O)c1-c1c(-c2ccc(OC(F)F)cc2)sc2ccc(F)cc12 [2-283] | 5 (Herbicidal rate of 90% or more (almost completely withered))

tested on: barnyard grass; assay: Test Example 5: herbicidal effect by foliage application, plastic box (Table 20, symbol H); format: in vivo, barnyard grass (Echinochloa crus-galli); settings: foliage application, AAH 320 g/ha, evaluated three weeks after application
Procedure, shortened: as §1

Row | SMILES | H: barnyard grass, herbicidal effect (criteria 0-5)
7 | Cc1nn(C)c(=O)c(-c2c(-c3ccc(S(C)(=O)=O)cc3)sc3ccc(F)cc23)c1O [2-258] | 5 (Herbicidal rate of 90% or more (almost completely withered))
8 | COCC(=O)Oc1c(C)nn(C)c(=O)c1-c1c(-c2ccc(OC(F)F)cc2)sc2ccc(F)cc12 [2-283] | 5 (Herbicidal rate of 90% or more (almost completely withered))

tested on: late watergrass; assay: Test Example 1: herbicidal activity, application before weed generation under submerged conditions (Table 16, symbol A); format: in vivo, late watergrass (Echinochloa oryzicola); settings: 320 g/ha applied herbicide
Procedure, shortened: as §2

Row | SMILES | Herbicidal effect on A: late watergrass (grade 0-5)
9 | Cc1nn(C)c(=O)c(-c2c(-c3ccc(S(C)(=O)=O)cc3)sc3ccc(F)cc23)c1O [2-258] | 5 (Herbicidal rate of 90% or more (almost completely withered))
10 | COCC(=O)Oc1c(C)nn(C)c(=O)c1-c1c(-c2ccc(OC(F)F)cc2)sc2ccc(F)cc12 [2-283] | 3 (Herbicidal rate of 40% or more and less than 70%)

tested on: velvetleaf; assay: Test Example 5: herbicidal effect by foliage application, plastic box (Table 20, symbol M); format: in vivo, velvetleaf (Abutilon theophrasti); settings: foliage application, AAH 320 g/ha, evaluated three weeks after application
Procedure, shortened: as §1

Row | SMILES | M: velvetleaf, herbicidal effect (criteria 0-5)
11 | Cc1nn(C)c(=O)c(-c2c(-c3ccc(S(C)(=O)=O)cc3)sc3ccc(F)cc23)c1O [2-258] | 5 (Herbicidal rate of 90% or more (almost completely withered))
12 | COCC(=O)Oc1c(C)nn(C)c(=O)c1-c1c(-c2ccc(OC(F)F)cc2)sc2ccc(F)cc12 [2-283] | 5 (Herbicidal rate of 90% or more (almost completely withered))

tested on: windgrass; assay: Test Example 4: herbicidal effect by soil treatment (Table 19, symbol L); format: in vivo, windgrass (Apera spica-venti); settings: amount of applied herbicide 320 g/ha
Procedure, shortened: (§3)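 Three weeks of greenhouse growth at 25° C. to 30° C. followed a uniform surface spray of water-diluted emulsion at a predetermined herbicide amount. Seeds had been sown beforehand under about 1.5 cm of sterilized diluvial soil. Grading followed criteria set out in an earlier test.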

Row | SMILES | herbicidal effect on L: windgrass
13 | Cc1nn(C)c(=O)c(-c2c(-c3ccc(S(C)(=O)=O)cc3)sc3ccc(F)cc23)c1O [2-258] | 4 (Herbicidal rate of 70% or more and less than 90%)
14 | COCC(=O)Oc1c(C)nn(C)c(=O)c1-c1c(-c2ccc(OC(F)F)cc2)sc2ccc(F)cc12 [2-283] | 4 (Herbicidal rate of 70% or more and less than 90%)

tested on: persian speedwell; assay: Test Example 4: herbicidal effect by soil treatment (Table 19, symbol R); format: in vivo, Persian speedwell (Veronica persica); settings: amount of applied herbicide 320 g/ha
Procedure, shortened: as §3

Row | SMILES | herbicidal effect on R: persian speedwell
15 | Cc1nn(C)c(=O)c(-c2c(-c3ccc(S(C)(=O)=O)cc3)sc3ccc(F)cc23)c1O [2-258] | 5 (Herbicidal rate of 90% or more (almost completely withered))
16 | COCC(=O)Oc1c(C)nn(C)c(=O)c1-c1c(-c2ccc(OC(F)F)cc2)sc2ccc(F)cc12 [2-283] | 5 (Herbicidal rate of 90% or more (almost completely withered))

tested on: chickweed; assay: Test Example 4: herbicidal effect by soil treatment (Table 19, symbol P); format: in vivo, common chickweed (Stellaria media); settings: amount of applied herbicide 320 g/ha
Procedure, shortened: as §3

Row | SMILES | herbicidal effect on P: chickweed
17 | Cc1nn(C)c(=O)c(-c2c(-c3ccc(S(C)(=O)=O)cc3)sc3ccc(F)cc23)c1O [2-258] | 4 (Herbicidal rate of 70% or more and less than 90%)
18 | COCC(=O)Oc1c(C)nn(C)c(=O)c1-c1c(-c2ccc(OC(F)F)cc2)sc2ccc(F)cc12 [2-283] | 4 (Herbicidal rate of 70% or more and less than 90%)

tested on: barnyard grass; assay: Test Example 3: herbicidal effect by foliage application, Wagner pot (Table 18, symbol H); format: in vivo, barnyard grass (Echinochloa crus-galli); settings: amount of applied herbicide 320 g/ha
Procedure, shortened: (§4)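 Plants were sown in alluvial soil held under 0.1–0.5 cm standing water and grown 14 days in a greenhouse at 25–30 °C. An emulsifiable formulation, water-diluted to the set dose, was then sprayed onto the foliage, and effects were scored three weeks later using previously defined criteria.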

Row | SMILES | herbicidal effect on H: barnyard grass
19 | Cc1nn(C)c(=O)c(-c2c(-c3ccc(S(C)(=O)=O)cc3)sc3ccc(F)cc23)c1O [2-258] | 5 (Herbicidal rate of 90% or more (almost completely withered))
20 | COCC(=O)Oc1c(C)nn(C)c(=O)c1-c1c(-c2ccc(OC(F)F)cc2)sc2ccc(F)cc12 [2-283] | 5 (Herbicidal rate of 90% or more (almost completely withered))

tested on: oval-leafed pondweed; assay: Test Example 1: herbicidal activity, application before weed generation under submerged conditions (Table 16, symbol C); format: in vivo, oval-leafed pondweed (Monochoria vaginalis); settings: 320 g/ha applied herbicide
Procedure, shortened: as §2

Row | SMILES | Herbicidal effect on C: oval-leafed pondweed (grade 0-5)
21 | Cc1nn(C)c(=O)c(-c2c(-c3ccc(S(C)(=O)=O)cc3)sc3ccc(F)cc23)c1O [2-258] | 0 (Herbicidal rate of 5% or less (almost no effect))
22 | COCC(=O)Oc1c(C)nn(C)c(=O)c1-c1c(-c2ccc(OC(F)F)cc2)sc2ccc(F)cc12 [2-283] | 3 (Herbicidal rate of 40% or more and less than 70%)

tested on: rice flat sedge; assay: Test Example 3: herbicidal effect by foliage application, Wagner pot (Table 18, symbol E); format: in vivo, rice flat sedge (Cyperus iria); settings: amount of applied herbicide 320 g/ha
Procedure, shortened: as §4

Row | SMILES | herbicidal effect on E: rice flat sedge
23 | Cc1nn(C)c(=O)c(-c2c(-c3ccc(S(C)(=O)=O)cc3)sc3ccc(F)cc23)c1O [2-258] | 5 (Herbicidal rate of 90% or more (almost completely withered))
24 | COCC(=O)Oc1c(C)nn(C)c(=O)c1-c1c(-c2ccc(OC(F)F)cc2)sc2ccc(F)cc12 [2-283] | 5 (Herbicidal rate of 90% or more (almost completely withered))

tested on: Italian ryegrass; assay: Test Example 4: herbicidal effect by soil treatment (Table 19, symbol K); format: in vivo, Italian ryegrass (Lolium multiflorum); settings: amount of applied herbicide 320 g/ha
Procedure, shortened: as §3

Row | SMILES | herbicidal effect on K: Italian ryegrass
25 | Cc1nn(C)c(=O)c(-c2c(-c3ccc(S(C)(=O)=O)cc3)sc3ccc(F)cc23)c1O [2-258] | 5 (Herbicidal rate of 90% or more (almost completely withered))
26 | COCC(=O)Oc1c(C)nn(C)c(=O)c1-c1c(-c2ccc(OC(F)F)cc2)sc2ccc(F)cc12 [2-283] | 5 (Herbicidal rate of 90% or more (almost completely withered))

tested on: windgrass; assay: Test Example 5: herbicidal effect by foliage application, plastic box (Table 20, symbol L); format: in vivo, windgrass (Apera spica-venti); settings: foliage application, AAH 320 g/ha, evaluated three weeks after application
Procedure, shortened: as §1

Row | SMILES | L: windgrass, herbicidal effect (criteria 0-5)
27 | Cc1nn(C)c(=O)c(-c2c(-c3ccc(S(C)(=O)=O)cc3)sc3ccc(F)cc23)c1O [2-258] | 5 (Herbicidal rate of 90% or more (almost completely withered))
28 | COCC(=O)Oc1c(C)nn(C)c(=O)c1-c1c(-c2ccc(OC(F)F)cc2)sc2ccc(F)cc12 [2-283] | 5 (Herbicidal rate of 90% or more (almost completely withered))

tested on: redroot pigweed; assay: Test Example 5: herbicidal effect by foliage application, plastic box (Table 20, symbol N); format: in vivo, redroot pigweed (Amaranthus retroflexus); settings: foliage application, AAH 320 g/ha, evaluated three weeks after application
Procedure, shortened: as §1

Row | SMILES | N: redroot pigweed, herbicidal effect (criteria 0-5)
29 | Cc1nn(C)c(=O)c(-c2c(-c3ccc(S(C)(=O)=O)cc3)sc3ccc(F)cc23)c1O [2-258] | 5 (Herbicidal rate of 90% or more (almost completely withered))
30 | COCC(=O)Oc1c(C)nn(C)c(=O)c1-c1c(-c2ccc(OC(F)F)cc2)sc2ccc(F)cc12 [2-283] | 5 (Herbicidal rate of 90% or more (almost completely withered))

tested on: wild oat; assay: Test Example 5: herbicidal effect by foliage application, plastic box (Table 20, symbol I); format: in vivo, wild oat (Avena fatua); settings: foliage application, AAH 320 g/ha, evaluated three weeks after application
Procedure, shortened: as §1

Row | SMILES | I: wild oat, herbicidal effect (criteria 0-5)
31 | Cc1nn(C)c(=O)c(-c2c(-c3ccc(S(C)(=O)=O)cc3)sc3ccc(F)cc23)c1O [2-258] | 5 (Herbicidal rate of 90% or more (almost completely withered))
32 | COCC(=O)Oc1c(C)nn(C)c(=O)c1-c1c(-c2ccc(OC(F)F)cc2)sc2ccc(F)cc12 [2-283] | 3 (Herbicidal rate of 40% or more and less than 70%)

tested on: chickweed; assay: Test Example 5: herbicidal effect by foliage application, plastic box (Table 20, symbol P); format: in vivo, common chickweed (Stellaria media); settings: foliage application, AAH 320 g/ha, evaluated three weeks after application
Procedure, shortened: as §1

Row | SMILES | P: chickweed, herbicidal effect (criteria 0-5)
33 | Cc1nn(C)c(=O)c(-c2c(-c3ccc(S(C)(=O)=O)cc3)sc3ccc(F)cc23)c1O [2-258] | 5 (Herbicidal rate of 90% or more (almost completely withered))
34 | COCC(=O)Oc1c(C)nn(C)c(=O)c1-c1c(-c2ccc(OC(F)F)cc2)sc2ccc(F)cc12 [2-283] | 5 (Herbicidal rate of 90% or more (almost completely withered))

tested on: Chinese sprangletop; assay: Test Example 3: herbicidal effect by foliage application, Wagner pot (Table 18, symbol D); format: in vivo, chinese sprangletop (Leptochloa chinensis); settings: amount of applied herbicide 320 g/ha
Procedure, shortened: as §4

Row | SMILES | herbicidal effect on D: Chinese sprangletop
35 | Cc1nn(C)c(=O)c(-c2c(-c3ccc(S(C)(=O)=O)cc3)sc3ccc(F)cc23)c1O [2-258] | 5 (Herbicidal rate of 90% or more (almost completely withered))
36 | COCC(=O)Oc1c(C)nn(C)c(=O)c1-c1c(-c2ccc(OC(F)F)cc2)sc2ccc(F)cc12 [2-283] | 4 (Herbicidal rate of 70% or more and less than 90%)

tested on: lambsquarters; assay: Test Example 4: herbicidal effect by soil treatment (Table 19, symbol O); format: in vivo, lambsquarters (Chenopodium album); settings: amount of applied herbicide 320 g/ha
Procedure, shortened: as §3

Row | SMILES | herbicidal effect on O: lambsquarters
37 | Cc1nn(C)c(=O)c(-c2c(-c3ccc(S(C)(=O)=O)cc3)sc3ccc(F)cc23)c1O [2-258] | 4 (Herbicidal rate of 70% or more and less than 90%)
38 | COCC(=O)Oc1c(C)nn(C)c(=O)c1-c1c(-c2ccc(OC(F)F)cc2)sc2ccc(F)cc12 [2-283] | 5 (Herbicidal rate of 90% or more (almost completely withered))
